Publication PMC10447463, “Data-mining unveils structure–property–activity correlation of viral infectivity enhancing self-assembling peptides” (Nature Communications, 2023)
Where two headings read alike, the source gives them in different places.

Tests used:
[1] = Turbidity, derived count rate of scattered light; assay type: physicochemical; conditions: for Count Rate: derived count rate of scattered light (turbidity); for Log10 Count Rate: turbidity, derived count rate of scattered light, data of Figure 2D
[2] = Zeta-potential measurement; assay type: physicochemical
Method in brief: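 Zeta potentials of aggregated peptides come from electrophoretic mobility (Smoluchowski model) in 1 mM KCl after a 1 d RT incubation at 1 mg/mL in PBS, pH 7.4.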

[3] = tested on: HIV-1 infection of TZM-bl cells; assay: HIV-1 infectivity enhancement assay, β-galactosidase luminescence; assay type: cell-based; conditions: for Rel-EFC / Log10 Infection Rel EFC: 1.3 µM peptide; for Rel-EFC: infection relative to EF-C (QCKIKQIINMWQ = 1); for Log10 Infection Rel EFC: log10 of infection relative to EF-C; for Log Infectivity: Log10 infection relative to EF-C, TZM-bl cells, asymmetric std dev errors; for Log10 Infection Rel EF-C: HIV-1 infection of TZM-bl cells; for Abs. Inf.: absolute infection signal, HIV-1 on TZM-bl cells, β-galactosidase luminescence; for Log10 Inf. rel. to EF-C: log10 of HIV-1 infection of TZM-bl cells relative to EF-C (EF-C = 0); for Log10 of Rel to EFC (Feb2021): Log10 of infection relative to EF-C, all peptides of FigS16
[4] = Conversion rate (CR) assay with fluorescamine; assay type: physicochemical; design: key to CR: % = 100−100×filtrate/original fluorescence intensity; conditions: conversion rate, fluorescamine assay; for CR / %: Fig. S7 panel B
Method in brief: (§1)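 Conversion rate: fluorescamine fluorescence (ex 365/em 470 nm, 20 min RT) of 3 kDa filtrate versus unfiltered PNF, CR = 100 − 100 × filtrate/original intensity, triplicates. β-sheet content came from ATR FT-IR of lyophilized 1 mg/mL PNF powder, 64 scans.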

[5] = assay type: physicochemical; design: key to Fibril / Fibril Formation / TEM 2cat / Fibril: 1 = fibrils present; 0 non-fibrillar structures; conditions: for Fibril / Fibril Formation: 1 mg/mL, uranyl acetate stain, qualitative
[6] = β-sheet content by ATR-FT-IR; assay type: physicochemical; conditions: Fig. S7 panel A; β-sheet content by ATR-FT-IR
Method in brief: as §1

[7] = zeta-potential of peptide, source data of Figure 2C
[8] = zeta-potential of the peptide assemblies, mean, Figure 3A source data
[9] = Fig. S7 panel A (plotted against β-sheet content)
[10] = Fig. S7 panel B (plotted against CR), rounded to two decimals
[11] = Log10 of infection rate relative to EF-C, Figure 3A source data
[12] = infection rate relative to EF-C, log10, data of Figure 2D
[13] = infection rate relative to EF-C, log10, source data of Figure 2C
[14] = FigS12 panel A, fibril category by TEM
[15] = TEM, 1 = fibrils present, 0 = non-fibrillar
[16] = TEM, 1 = fibrils present, 0 = non-fibrillar structures
[17] = category: fibrils present or non-fibrillar

| Substance | Count Rate [1] | Log10 Count Rate [1] | Zeta-Potential / mV [2, 7] | Zeta-Potential / mV [2, 8] | Rel-EFC [3] | Log10 Infection Rel EFC [3] | Log Infectivity [3, 9] | Log Infectivity [3, 10] | Log10 Infection Rel EF-C [3, 11] | Log10 Infection Rel EF-C [3, 12] | Log10 Infection Rel EF-C [3, 13] | Log10 Inf. rel. to EF-C [3] | CR / % [4] | CR [4] | TEM 2cat ([5]; Fig S10 panel D) | Fibril ([5]; Fig S10 panel E) | Fibril / Fibril Formation ([5]; TEM) | Fibril [5, 15] | Fibril [5, 16] | b -sheet / % [6] | further results |
| --- | --- | --- | --- | --- | --- | --- | --- | --- | --- | --- | --- | --- | --- | --- | --- | --- | --- | --- | --- | --- | --- |
| CRFRVPF | 73.97 | 1.869 | 1.957 mV | 4.41 mV | 0,02 | -1,7 | -1.701 | -1.7 | -1.7 | -1.701 | -1.701 | -1.701 | 97.1% | 97.05 | 0 | 0 | 0 | 0 | 0 | 11.43% | Zeta-Pot. [2]: 4.413; Abs. Inf. [3]: 376.7; TEM 2cat [5, 14]: 0; Fibril ([5]; FigS12 panel B, TEM): 0 |
| CKFC | 235.1 | 2.371 | -2.077 mV | -19.89 mV | 0,01 | -1,96 | -1.959 | -1.96 | -1.96 | -1.959 | -1.959 | -1.959 | 35.9% | 35.92 | 0 | 0 | 0 | 0 | 0 | 38.87% | Zeta-Pot. [2]: -19.89; Abs. Inf. [3]: 240; TEM 2cat [5, 14]: 0; Fibril ([5]; FigS12 panel B, TEM): 0 |
| KFKFQF | 183.4 | 2.263 | -8.745 mV | -11.03 mV | 0,06 | -1,21 | -1.213 | -1.21 | -1.21 | -1.213 | -1.213 | -1.213 | 67.4% | 67.4 | 0 | 0 | 0 | 0 | 0 | 46% | Zeta-Pot. ([2]; zeta potential of peptide assemblies): -11.03; TEM 2cat [5, 14]: 0; Fibril ([5]; FigS12 panel B, TEM): 0 |
| QCKFKFQFNMWQ | 1208 | 3.082 | 16.85 mV | 21.07 mV | 0,62 | -0,21 | -0.2086 | -0.21 | -0.21 | -0.2086 | -0.2086 | -0.2086 | 98.9% | 98.91 | 1 | 1 | 1 | 1 | 1 | 47.0491% | Zeta-Pot. [2]: 21.07; Log10 of Rel to EFC (Feb2021) [3]: -0.21; Abs. Inf. [3]: 19753.33333; TEM 2cat [5, 17]: 1 |
| KFKFQFNMWQ | 734.6 | 2.866 | 24.38 mV | 25.4 mV | 0,76 | -0,12 | -0.1164 | -0.12 | -0.12 | -0.1164 | -0.1164 | -0.1164 | 96.2% | 96.16 | 1 | 1 | 1 | 1 | 1 | 43.15% | Zeta-Pot. [2]: 25.4; Log10 of Rel to EFC (Feb2021) [3]: -0.12; Abs. Inf. [3]: 20676.66667; TEM 2cat [5, 17]: 1 |
| CKFKFQFNMWQ | 142.5 | 2.154 | 15.58 mV | 17.03 mV | 1,16 | 0,06 | 0.06446 | 0.06 | 0.06 | 0.06446 | 0.06446 | 0.06446 | 97.5% | 97.52 | 1 | 1 | 1 | 1 | 1 | 47.05% | Zeta-Pot. [2]: 17.03; Log10 of Rel to EFC (Feb2021) [3]: 0.06; Abs. Inf. [3]: 26320; TEM 2cat [5, 17]: 1 |
| CRFRFQF | 390.5 | 2.592 | 6.218 mV | -2.1 mV | 0,34 | -0,46 | -0.4635 | -0.46 | -0.46 | -0.4635 | -0.4635 | -0.4635 | 98.1% | 98.13 | 1 | 1 | 1 | 1 | 1 | 39.77% | Zeta-Pot. [2]: -2.097; Log10 of Rel to EFC (Feb2021) [3]: -0.46; Abs. Inf. [3]: 7508; TEM 2cat [5, 17]: 1 |
| QCKIKIQINMWQ | 8271 | 3.918 | 11.38 mV | 11.73 mV | 1,04 | 0,02 | 0.01546 | 0.02 | 0.02 | 0.01546 | 0.01546 | 0.01546 | 93.7% | 93.68 | 1 | 1 | 1 | 1 | 1 | 36.23% | Zeta-Pot. [2]: 11.73; Log10 of Rel to EFC (Feb2021) [3]: 0.02; Abs. Inf. [3]: 21221.11111; TEM 2cat [5, 17]: 1 |
| MDQMDQMDQMDQMDQ | 9.6 | 0.9823 | -10.69 mV | -14.98 mV | 0 | -2,37 | -2.37 | -2.37 | -2.37 | -2.37 | -2.37 | -2.37 | 53% | 53.03 | 0 | 0 | 0 | 0 | 0 | 46.09% | Zeta-Pot. [2]: -14.98; Abs. Inf. [3]: 63.33; TEM 2cat [5, 14]: 0; Fibril ([5]; FigS12 panel B, TEM): 0 |
| HIHIQIC | 260.6 | 2.416 | -5.093 mV | -3.69 mV | 0,27 | -0,57 | -0.5672 | -0.57 | -0.57 | -0.5672 | -0.5672 | -0.5672 | 82.7% | 82.72 | 1 | 1 | 1 | 1 | 1 | 48.25% | Zeta-Pot. [2]: -3.687; Log10 of Rel to EFC (Feb2021) [3]: -0.57; Abs. Inf. [3]: 4621; TEM 2cat [5, 17]: 1 |
